Measurements reported in patent US7135466B2 (Kirin Beer Kabushiki Kaisha, priority 1999, dated 2006).

Legend:
[1] = molecular target: T1, c-kit (Homo sapiens, UniProt P10721); assay: Inhibitory activity against c-kit autophosphorylation (MO7e cells, h-SCF); type: cell-based; conditions: for IC50: MO7e cells, h-SCF 50 ng/ml, read-out: c-kit IC50; for inhibition at 1 µM: Mo7e, figure in parentheses in −( ), at 1000 nM
T1 construct: MO7e (human megakaryocytic leukemia cell line) which had been arrested for 20 hr; endogenous in cells; host or cells: MO7e human megakaryocytic leukemia cell line
How it was run: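 MO7e cells, arrested for 20 hr, were pretreated with test compound in DMSO for 1 hr and then stimulated with 50 ng/ml h-SCF for 5 min before lysis. Lysates were captured on immobilized anti-phosphotyrosine PY-20, probed with anti-c-kit antibody and HRP anti-rabbit IgG, and read colorimetrically at 450 nm.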

[2] = molecular target: T2, PDGF-Ra (Homo sapiens, UniProt P16234); assay: Inhibitory activity against PDGF-Ra phosphorylation by PDGF-AA stimulation using G292; type: cell-based; conditions: for IC50: Pharmacological Test Example 1, > means inhibition at indicated concentration not more than 50%, < and << not less than 50%, read-out: PDGF (E) IC50; for inhibition at 0.1 µM: G292, figure in parentheses in >100( ), at 100 nM, read-out: PDGF (E) inhibition (%) at 100 nM
T2 construct: host or cells: G-292 human osteosarcoma cells
How it was run: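 Cells seeded in low-serum medium are exposed to test compound for one hour, then PDGF-AA (50 ng/ml) triggers receptor phosphorylation for 5 min at 37 °C. Phospho-PDGF-Ra in solubilized cells is quantified by anti-phosphotyrosine capture ELISA at 450 nm.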

T1 sequence (P10721 26-976): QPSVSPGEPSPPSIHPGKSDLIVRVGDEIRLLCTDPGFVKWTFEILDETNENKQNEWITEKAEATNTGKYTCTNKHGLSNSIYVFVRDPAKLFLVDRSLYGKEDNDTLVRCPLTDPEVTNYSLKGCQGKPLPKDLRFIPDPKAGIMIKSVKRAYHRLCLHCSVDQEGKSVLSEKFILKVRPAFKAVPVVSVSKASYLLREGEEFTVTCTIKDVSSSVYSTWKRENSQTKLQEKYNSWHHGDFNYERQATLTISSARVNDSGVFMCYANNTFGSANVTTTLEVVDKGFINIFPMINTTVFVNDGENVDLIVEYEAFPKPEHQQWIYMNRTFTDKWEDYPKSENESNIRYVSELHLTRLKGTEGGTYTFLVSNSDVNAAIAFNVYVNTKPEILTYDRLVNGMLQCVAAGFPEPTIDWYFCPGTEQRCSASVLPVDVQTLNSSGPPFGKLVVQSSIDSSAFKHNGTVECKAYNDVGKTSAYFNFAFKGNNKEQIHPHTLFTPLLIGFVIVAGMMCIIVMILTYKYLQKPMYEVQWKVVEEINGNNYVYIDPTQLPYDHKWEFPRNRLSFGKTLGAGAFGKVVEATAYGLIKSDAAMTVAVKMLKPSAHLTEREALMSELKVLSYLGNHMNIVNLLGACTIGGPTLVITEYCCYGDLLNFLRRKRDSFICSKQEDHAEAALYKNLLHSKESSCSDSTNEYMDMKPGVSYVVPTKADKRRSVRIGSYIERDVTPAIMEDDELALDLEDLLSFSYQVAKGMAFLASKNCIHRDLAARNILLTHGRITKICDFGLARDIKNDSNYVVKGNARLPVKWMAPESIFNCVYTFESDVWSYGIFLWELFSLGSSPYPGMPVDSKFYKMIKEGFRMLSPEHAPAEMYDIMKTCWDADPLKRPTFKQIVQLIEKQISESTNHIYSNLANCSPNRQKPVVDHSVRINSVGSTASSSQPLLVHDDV
T2 sequence (P16234 24-1089): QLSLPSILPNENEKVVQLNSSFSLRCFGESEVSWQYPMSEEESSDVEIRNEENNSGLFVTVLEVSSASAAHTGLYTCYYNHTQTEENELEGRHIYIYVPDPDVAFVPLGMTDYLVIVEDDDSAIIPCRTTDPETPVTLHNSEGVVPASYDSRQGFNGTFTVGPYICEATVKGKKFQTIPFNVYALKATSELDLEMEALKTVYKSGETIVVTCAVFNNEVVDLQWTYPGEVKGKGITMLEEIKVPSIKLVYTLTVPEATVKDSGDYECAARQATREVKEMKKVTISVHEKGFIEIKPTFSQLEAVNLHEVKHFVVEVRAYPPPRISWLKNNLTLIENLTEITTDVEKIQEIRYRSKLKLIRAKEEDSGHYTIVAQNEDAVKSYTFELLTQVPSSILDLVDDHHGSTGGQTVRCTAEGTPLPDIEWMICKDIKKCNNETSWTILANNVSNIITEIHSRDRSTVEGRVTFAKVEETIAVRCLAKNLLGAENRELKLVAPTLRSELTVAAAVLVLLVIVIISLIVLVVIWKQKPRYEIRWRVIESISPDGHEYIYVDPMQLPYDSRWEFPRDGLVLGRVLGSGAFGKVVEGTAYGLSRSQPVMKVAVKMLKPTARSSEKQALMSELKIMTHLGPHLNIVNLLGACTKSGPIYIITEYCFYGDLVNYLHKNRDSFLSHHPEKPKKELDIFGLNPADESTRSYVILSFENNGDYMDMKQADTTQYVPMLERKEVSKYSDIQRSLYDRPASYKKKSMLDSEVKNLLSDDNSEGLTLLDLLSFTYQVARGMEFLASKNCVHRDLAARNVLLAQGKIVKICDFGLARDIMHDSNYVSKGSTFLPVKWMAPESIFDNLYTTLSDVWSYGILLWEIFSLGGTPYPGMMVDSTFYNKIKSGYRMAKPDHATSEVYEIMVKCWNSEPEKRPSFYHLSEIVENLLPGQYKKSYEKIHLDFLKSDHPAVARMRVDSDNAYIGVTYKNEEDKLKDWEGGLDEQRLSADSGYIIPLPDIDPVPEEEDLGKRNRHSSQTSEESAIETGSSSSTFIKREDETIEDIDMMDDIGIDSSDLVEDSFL

Row | SMILES | IC50 [1] [nM] | IC50 [2] [nM] | inhibition at 1 µM [1] [%] | inhibition at 0.1 µM [2] [%]
1 | COc1cc2nccc(Oc3ccc(NC(=O)OC(C)c4ccccc4F)c(C)c3C)c2cc1OC (centres unmarked) [Example 123, 1-(2-Fluorophenyl)ethyl N-{4-[(6,7-dimethoxy-4-quinolyl)oxy]-2,3-dimethylphenyl}carbamate] | 207 | < 10 |  | 
2 | COc1cc2nccc(Oc3cc(C)c(NC(=O)OC(C)c4ccccc4F)cc3C)c2cc1OC (centres unmarked) [Example 124, 1-(2-Fluorophenyl)ethyl N-{4-[(6,7-dimethoxy-4-quinolyl)oxy]-2,5-dimethylphenyl}carbamate] |  | 42 | 39 | 
3 | COc1cc2ncnc(Oc3ccc(NC(=O)OC(C)c4ccccc4F)cc3)c2cc1OC (centres unmarked) [Example 125] | 671 | < 10 |  | 
4 | COc1cc2ncnc(Oc3ccc(NC(=O)OC(C)c4ccccc4F)c(Cl)c3)c2cc1OC (centres unmarked) [Example 126, 1-(2-Fluorophenyl)ethyl N-{2-chloro-4-[(6,7-dimethoxy-4-quinazolinyl)oxy]phenyl}carbamate] |  | 19 | 10 | 
5 | CCOc1ccccc1C(C)OC(=O)Nc1ccc(Oc2ccnc3cc(OC)c(OC)cc23)cc1 (centres unmarked) [Example 127, 1-(2-Ethoxyphenyl)ethyl N-{4-[(6,7-dimethoxy-4-quinolyl)oxy]phenyl}carbamate] | 283 | 16 |  | 
6 | CCOc1ccccc1C(C)OC(=O)Nc1ccc(Oc2ccnc3cc(OC)c(OC)cc23)c(C)c1C (centres unmarked) [Example 128, 1-(2-Ethoxyphenyl)ethyl N-{4-[(6,7-dimethoxy-4-quinolyl)oxy]-2,3-dimethylphenyl}carbamate] | 375 | 26 |  | 
7 | CCOc1ccccc1C(C)OC(=O)Nc1cc(C)c(Oc2ccnc3cc(OC)c(OC)cc23)cc1C (centres unmarked) [Example 129, 1-(2-Ethoxyphenyl)-ethyl N-{4-[(6,7-dimethoxy-4-quinolyl)oxy]-2,5-dimethylphenyl}carbamate] | 732 | 64 |  | 
8 | CCOc1ccccc1C(C)OC(=O)Nc1ccc(Oc2ncnc3cc(OC)c(OC)cc23)cc1 (centres unmarked) [Example 130, 1-(2-Ethoxyphenyl)ethyl N-{4-[(6,7-dimethoxy-4-quinazolinyl)oxy]phenyl}carbamate] | 714 | < 10 |  | 
9 | CCOc1ccccc1C(C)OC(=O)Nc1ccc(Oc2ncnc3cc(OC)c(OC)cc23)cc1Cl (centres unmarked) [Example 131, 1-(2-Ethoxyphenyl)ethyl N-{-chloro-4-[(6,7-dimethoxy-4-quinazolinyl)oxy]phenyl}carbamate] |  | 38 | 40 | 
10 | COc1cc2nccc(Oc3ccc(NC(=O)OC(C)c4ccc(C)cc4)cc3)c2cc1OC (centres unmarked) [Example 132, 1-(4-Methylphenyl)ethyl N-{4-[(6,7-dimethoxy-4-quinolyl)oxy]phenyl}carbamate] | 301 | 26 |  | 
11 | COc1cc2nccc(Oc3ccc(NC(=O)OC(C)c4ccc(C)cc4)c(C)c3C)c2cc1OC (centres unmarked) [Example 133, 1-(4-Methylphenyl)ethyl N-{4-[(6,7-dimethoxy-4-quinolyl)oxy]-2,3-dimethylphenyl}carbamate] | 206 | 26 |  | 
12 | COc1cc2nccc(Oc3cc(C)c(NC(=O)OC(C)c4ccc(C)cc4)cc3C)c2cc1OC (centres unmarked) [Example 134, 1-(4-Methylphenyl)ethyl N-{4-[(6,7-dimethoxy-4-quinolyl)oxy]-2,5-dimethylphenyl}carbamate] | 944 | > 100 |  | 49
13 | COc1cc2ncnc(Oc3ccc(NC(=O)OC(C)c4ccc(C)cc4)cc3)c2cc1OC (centres unmarked) [Example 135, 1-(4-Methylphenyl)ethyl N{4-[(6,7-dimethoxy-4-quinazolinyl)oxy]phenyl}carbamate] | 475 | 18 |  | 
14 | COc1cc2ncnc(Oc3ccc(NC(=O)OC(C)c4ccc(C)cc4)c(Cl)c3)c2cc1OC (centres unmarked) [Example 136, 1-(4-Methylphenyl)ethyl N-{2-chloro-4-[(6,7-dimethoxy-4-quinazolinyl)oxy]phenyl}carbamate] |  | 43 | 7 | 
15 | COc1cc2nccc(Oc3ccc(NC(=O)OCCSc4ccc(C)cc4)cc3)c2cc1OC [Example 137, 3-[(4-Methylphenyl)sulfanyl]ethyl N-{4-[(dimethoxy-4-quinolyl)oxy]-phenyl}carbamate] | 233 | < 10 |  | 

Further lines, results first:

Row | IC50 [1] [nM] | IC50 [2] [nM] | inhibition at 1 µM [1] [%] | inhibition at 0.1 µM [2] [%] | SMILES
16 | 74 | 17 |  |  | COc1cc2nccc(Oc3ccc(NC(=O)OCCSc4ccc(C)cc4)c(C)c3C)c2cc1OC [Example 138, 3-[(4-Methylphenyl)sulfanyl]ethyl N-{4-[(6,7-dimethoxy-4-quinolyl)oxy]-2,3-dimethylphenyl}carbamate]
17 | 234 | < 10 |  |  | COc1cc2ncnc(Oc3ccc(NC(=O)OCCSc4ccc(C)cc4)cc3)c2cc1OC [Example 140]
18 |  | 36 | 26 |  | COc1cc2ncnc(Oc3ccc(NC(=O)OCCSc4ccc(C)cc4)c(Cl)c3)c2cc1OC [Example 141, 3-[(4-Methylphenyl)sulfanyl]ethyl N-{2-chloro-4-[(6,7-dimethoxy-4-quinazolinyl)oxy]phenyl}carbamate]
19 | < 30 | < 10 |  |  | COc1cc2nccc(Oc3ccc(NC(=O)OCCCOc4ccccc4F)cc3)c2cc1OC [Example 142, 3-(2-Fluorophenoxy)propyl N-{4-[(6,7-dimethoxy-4-quinolyl)oxy]phenyl}carbamate]
20 | < 30 | < 10 |  |  | COc1cc2nccc(Oc3ccc(NC(=O)OCCCOc4ccccc4F)c(C)c3C)c2cc1OC [Example 143, 3-(2-Fluorophenoxy)propyl N-{4-[(6,7-dimethoxy-4-quinolyl)oxy]-2,3-dimethylphenyl}carbamate]
21 | 49 | 18 |  |  | COc1cc2nccc(Oc3cc(C)c(NC(=O)OCCCOc4ccccc4F)cc3C)c2cc1OC [Example 144, 3-(2-Fluorophenoxy)propyl N-{4-[(6,7-dimethoxy-4-quinolyl)oxy]-2,5-dimethylphenyl}carbamate]
22 | < 30 | < 10 |  |  | COc1cc2ncnc(Oc3ccc(NC(=O)OCCCOc4ccccc4F)cc3)c2cc1OC [Example 145, 3-(2-Fluorophenoxy) propyl N-{4-[(6,7-dimethoxy-4-quinazolinyl)oxy]phenyl}carbamate]
23 | 32 | 11 |  |  | COc1cc2ncnc(Oc3ccc(NC(=O)OCCCOc4ccccc4F)c(C)c3C)c2cc1OC [Example 146, 3-(2-Fluorophenoxy)propyl N-{4-[(6,7-dimethoxy-4-quinazolinyl)oxy]-2,3-dimethylphenyl}carbamate]
24 | < 30 | 11 |  |  | COc1cc2nccc(Oc3ccc(NC(=O)OCCCOc4cccc(F)c4)cc3)c2cc1OC [Example 147, 3-(3-Fluorophenoxy)propyl N-{4-[(6,7-dimethoxy-4-quinolyl)oxy]phenyl}carbamate]
25 | < 30 | < 10 |  |  | COc1cc2nccc(Oc3ccc(NC(=O)OCCCOc4cccc(F)c4)c(C)c3C)c2cc1OC [Example 148, 3-(3-Fluorophenoxy)propyl N-{4-[(6,7-dimethoxy-4-quinolyl)oxy]-2,3-dimethylphenyl}carbamate]
26 | 49 | 19 |  |  | COc1cc2nccc(Oc3cc(C)c(NC(=O)OCCCOc4cccc(F)c4)cc3C)c2cc1OC [Example 149, 3-(3-Fluorophenoxy)propyl N-{4-[(6,7-dimethoxy-4-quinolyl)oxy]-2,5-dimethylphenyl}carbamate]
27 | 38 | < 10 |  |  | COc1cc2ncnc(Oc3ccc(NC(=O)OCCCOc4cccc(F)c4)cc3)c2cc1OC [Example 150, 3-(3-Fluorophenoxy)propyl N-{4-[(6,7-dimethoxy-4-quinazolinyl)oxy]phenyl}carbamate]
28 | 32 | 12 |  |  | COc1cc2ncnc(Oc3ccc(NC(=O)OCCCOc4cccc(F)c4)c(C)c3C)c2cc1OC [Example 151, 3-(3-Fluorophenoxy)propyl N-{4-[(6,7-dimethoxy-4-quinazolinyl)oxy]-2,3-dimethylphenyl}carbamate]
29 | < 30 | < 10 |  |  | COc1cc2nccc(Oc3ccc(NC(=O)OCCCOc4ccc(F)cc4)cc3)c2cc1OC [Example 152, 3-(4-Fluorophenoxy)propyl N-{4-[(6,7-dimethoxy-4-quinolyl)oxy]phenyl}carbamate]
30 | < 30 | < 10 |  |  | COc1cc2nccc(Oc3ccc(NC(=O)OCCCOc4ccc(F)cc4)c(C)c3C)c2cc1OC [Example 153, 3-(4-Fluorophenoxy)propyl N-{4-[(6,7-dimethoxy-4-quinolyl)oxy]-2,3-dimethylphenyl}carbamate]
31 | 61 | 40 |  |  | COc1cc2nccc(Oc3cc(C)c(NC(=O)OCCCOc4ccc(F)cc4)cc3C)c2cc1OC [Example 154, 3-(4-Fluorophenoxy)propyl N-{4-[(6,7-dimethoxy-4-quinolyl)oxy]-2,5-dimethylphenyl}carbamate]
32 | 41 | 14 |  |  | COc1cc2ncnc(Oc3ccc(NC(=O)OCCCOc4ccc(F)cc4)cc3)c2cc1OC [Example 155, 3-(4-Fluorophenoxy)propyl N-{4-[(6,7-dimethoxy-4-quinazolinyl)oxy]phenyl}carbamate]
33 | 33 | > 100 |  | 48 | COc1cc2ncnc(Oc3ccc(NC(=O)OCCCOc4ccc(F)cc4)c(C)c3C)c2cc1OC [Example 156, 3-(4-Fluorophenoxy)propyl N-{4-[(6,7-dimethoxy-4-quinazolinyl)oxy]-2,3-dimethylphenyl}-carbamate]
